According to patent US20240295567A1, “HYPOXIA BIOMARKER AND USE THEREOF” (Kyoto University, priority 2021, published 2024):

What was measured:
[1] = system: human prostate cancer-derived cell line DU145; assay: Colony formation test after gamma ray irradiation with or without recombinant SPINK1 protein; type: cell-based; settings: rSPINK1 100 ng/ml for 24 hours, 0, 2, 4 or 6 Gy gamma rays, cultured 14 days, FIG. 41
Protocol: Human prostate cancer-derived cell line DU145 was cultured in serum-free medium under normal oxygen (20%) conditions for 24 hours. The medium was then replaced with normal medium (containing 5% serum) containing a recombinant SPINK1 protein at a final concentration of 100 ng/ml or with normal medium not containing the recombinant SPINK1 protein. The cells were cultured under normal oxygen conditions for 24 hours. The cells were then irradiated with 0, 2, 4, or 6 Gy gamma rays and cultured for 14 days. A colony formation test was then performed.

[2] = system: human prostate cancer-derived cell line DU145; assay: Viable cell quantification (Cell Count Reagent SF) after gamma ray irradiation with or without recombinant SPINK1 and anti-SPINK1 antibody; type: cell-based; settings: recombinant SPINK1 purified protein for 24 hours, 0 or 4 Gy gamma rays, 3 further days, FIG. 43
Protocol: Human prostate cancer-derived cell line DU145 was seeded into 96-well cell culture plates (4×10^2 cells per well in a 96-well plate when the dose of the subsequent irradiation is 0 Gy; and 1.2×10^3 cells per well when the dose is 4 Gy) and cultured in a CO2 incubator under a normal oxygen concentration overnight. Thereafter, the cells were cultured in serum-free medium for another 24 hours and then cultured in the presence or absence of recombinant SPINK1 purified protein and in the presence or absence of anti-SPINK1 antibody under normal oxygen conditions for 24 hours. The cells were then irradiated with 0 Gy or 4 Gy gamma rays and cultured under normal oxygen conditions for an additional 3 days. Viable cells were then quantified with Cell Count Reagent SF (produced by Nacalai Tesque, Inc., Catalog #07553-44).

recombinant SPINK1 protein: recombinant SPINK1 (serine protease inhibitor Kazal type I) protein added to culture medium (DSLGREAKCYNELNGCTKIYDPVCGTDGNTYPNECVLCFENRKRQTSILIQKSGPC; UniProt P00995 24-79, looked up)
radiation resistance of the cells (colony formation) [1]: radiation resistance of the cells is induced
radiation resistance of the cells (viable cells) [2]: radiation resistance of the cells was induced
